Results taken from ChEMBL document CHEMBL5126512, “Current status of carbazole hybrids as anticancer agents” (Eur J Med Chem, 2022).
Values belong to the compound of their own block, whether it stands above or below them.

How the values were obtained:
[1] = system: KYSE-510; assay: Antiproliferative activity against human KYSE-510 cells assessed as cell growth inhibition measured after 48 hrs by CCK-8 assay; assay type: functional, cell-based; details: KYSE-510, 48 h
[2] = system: KYSE-30; assay: Antiproliferative activity against human KYSE-30 cells assessed as cell growth inhibition measured after 48 hrs by CCK-8 assay; assay type: functional, cell-based; details: KYSE-30, 48 h
[3] = system: KYSE-140; assay: Antiproliferative activity against human KYSE-140 cells assessed as cell growth inhibition measured after 48 hrs by CCK-8 assay; assay type: functional, cell-based; details: KYSE-140, 48 h
[4] = system: KYSE-410; assay: Antiproliferative activity against human KYSE-410 cells assessed as cell growth inhibition measured after 48 hrs by CCK-8 assay; assay type: functional, cell-based; details: KYSE-410, 48 h
[5] = Antiproliferative activity against human KYSE-170 cells assessed as cell growth inhibition measured after 48 hrs by CCK-8 assay; assay type: functional, cell-based; details: KYSE-170, 48 h
[6] = system: DLD-1; assay: Cytotoxicity against human DLD-1 cells assessed as cell growth inhibition measured after 24 hrs by MTT assay; assay type: functional, cell-based; details: DLD-1, 24 h
[7] = Cytotoxicity against human HaCaT cells assessed as cell growth inhibition measured after 24 hrs by MTT assay; assay type: toxicity, cell-based
[8] = Cytotoxicity against HEK293 cells assessed as cell growth inhibition measured after 24 hrs by MTT assay; assay type: toxicity, cell-based; details: human
[9] = Cytotoxicity against human Kidney epithelial cells assessed as cell growth inhibition measured after 24 hrs by XTT assay; assay type: toxicity, cell-based
[10] = system: MCF7; assay: Antiproliferative activity against human MCF7 cells assessed as cell growth inhibition measured after 48 hrs by SRB assay; assay type: functional, cell-based; details: MCF7, 48 h
[11] = system: HepG2; assay: Antitumor activity against human HepG2 xenografted in BALB/c nude mouse assessed as tumor growth inhibition at 10 mg/kg, iv administered every 2 days and measured upto 30 days relative to control; assay type: functional; details: HepG2, 720 h, time <= 30 day, read-out: TGI
[12] = system: HepG2; assay: Antiproliferative activity against human HepG2 cells assessed as cell growth inhibition measured after 48 hrs by SRB assay; assay type: functional, cell-based; details: HepG2, 48 h
[13] = system: Bel-7402; assay: Antiproliferative activity against human Bel-7402 cells assessed as cell growth inhibition measured after 48 hrs by SRB assay; assay type: functional, cell-based; details: Bel-7402, 48 h
[14] = system: MIA PaCa-2; assay: Antiproliferative activity against human MIA PaCa-2 cells assessed as cell growth inhibition measured after 48 hrs by SRB assay; assay type: functional, cell-based; details: MIA PaCa-2, 48 h
[15] = system: Hep 3B2; assay: Cytotoxicity against human Hep3B cells assessed as cell growth inhibition measured after 48 hrs by MTT assay; assay type: functional, cell-based
[16] = system: SMMC-7721; assay: Cytotoxicity against human SMMC-7721 cells assessed as cell growth inhibition measured after 48 hrs by MTT assay; assay type: functional, cell-based; details: SMMC-7721, 48 h
[17] = Cytotoxicity against human QSG7701 cells assessed as cell growth inhibition measured after 48 hrs by MTT assay; assay type: toxicity, cell-based
[18] = system: HepG2; assay: Cytotoxicity against human HepG2 cells assessed as cell growth inhibition measured after 48 hrs by MTT assay; assay type: functional, cell-based; details: HepG2, 48 h
[19] = system: HeLa; assay: Potency index, ratio of cisplatin IC50 to compound IC50 for antiproliferative activity against human HeLa cells by MTT assay; assay type: functional
[20] = system: HeLa; assay: Antiproliferative activity against human HeLa cells assessed as cell growth inhibition by MTT assay; assay type: functional, cell-based
[21] = system: MDA-MB-231; assay: Cytotoxicity against human MDA-MB-231 cells assessed as cell growth inhibition measured after 72 hrs by MTT assay; assay type: functional, cell-based; details: MDA-MB-231, 72 h
[22] = system: MCF7; assay: Cytotoxicity against human MCF7 cells assessed as cell growth inhibition measured after 72 hrs by MTT assay; assay type: functional, cell-based; details: MCF7, 72 h
[23] = Cytotoxicity against human MCF-12A cells assessed as cell growth inhibition measured after 72 hrs by MTT assay; assay type: toxicity, cell-based
[24] = system: HeLa; assay: Antiproliferative activity against human HeLa cells assessed as cell growth inhibition by WST-1 assay; assay type: functional, cell-based
[25] = system: CCRF-CEM; assay: Antiproliferative activity against human CCRF-CEM cells assessed as cell growth inhibition measured after 48 hrs by SRB assay; assay type: functional, cell-based
[26] = system: A549; assay: Antiproliferative activity against human A549 cells assessed as cell growth inhibition measured after 48 hrs by SRB assay; assay type: functional, cell-based; details: A549, 48 h
[27] = system: MCF7; assay: Antiproliferative activity against human MCF7 cells assessed as cell growth inhibition measured after 72 hrs by MTT assay; assay type: functional, cell-based; details: MCF7, 72 h
[28] = system: MDA-MB-231; assay: Antiproliferative activity against human MDA-MB-231 cells assessed as cell growth inhibition measured after 72 hrs by MTT assay; assay type: functional, cell-based; details: MDA-MB-231, 72 h
[29] = Cytotoxicity against human MCF-10A cells assessed as cell growth inhibition measured after 72 hrs by MTT assay; assay type: toxicity, cell-based
[30] = system: HeLa; assay: Cytotoxicity against human HeLa cells assessed as cell growth inhibition measured after 72 hrs by MTT assay; assay type: functional, cell-based; details: pooled result: one value given for 3 cell lines, strains, targets or settings
[31] = system: HepG2; assay: Cytotoxicity against human HepG2 cells assessed as cell growth inhibition measured after 72 hrs by MTT assay; assay type: functional, cell-based; details: HepG2, 72 h
[32] = Cytotoxicity against mouse 3T3-L1 cells assessed as cell growth inhibition measured after 72 hrs by MTT assay; assay type: toxicity, cell-based

SMILES: COc1ccc(NS(=O)(=O)c2ccc3c(c2)c2cc(O)ccc2n3C)c(OC)n1
IC50 [1]: 0.01 µM | IC50 [2]: 0.01 µM | IC50 [3]: 0.01 µM | IC50 [4]: 0.01 µM | IC50 [5]: 0.01 µM

SMILES: COc1ccc2c(c1)[nH]c1c3c(c(C)cc12)OC(C)(C)C=C3
IC50 [6]: 17.9 µM | IC50 at 24 h [7]: > 100 µM | IC50 at 24 h [8]: > 100 µM

SMILES: CN(C)CCCNC(=O)c1ccc(-n2cc(-c3ccc4c(c3)c3ccccc3n4CCCN(C)C)nn2)cc1
IC50 at 24 h [9]: > 30 µM

IC50 [10]: 5.67 µM | IC50 [12]: 5.67 µM | IC50 [13]: 5.67 µM | IC50 [14]: 5.67 µM
SMILES: COc1ccc(NS(=O)(=O)c2ccc3c(c2)c2cc(OCCCN4CCN(C)CC4)ccc2n3C)c(OC)n1
inhibition in vivo at 10 mg/kg [11]: 61.1%

SMILES: CCOc1ccc2c(c1)c1c(n2CCN2CCNCC2)-c2cc(C(C)C)ccc2[C@@]2(C)CCC[C@@](C)(C(=O)OC)C12 (stereo not given in full)
IC50 [15]: 0.51 µM | IC50 [16]: 0.51 µM | IC50 at 48 h [17]: 12.5 µM | IC50 [18]: 0.51 µM

SMILES: CCCCCCCCn1c2ccc(/C=C/C(=O)c3ccccc3[N+](=O)[O-])cc2c2cc(C(C)=O)ccc21
Ratio IC50 [19]: 2 | IC50 [20]: 5.64 µM

SMILES: CC[n+]1c(/C=C/c2ccc3c(c2)c2ccccc2n3CCCCn2ccnc2)sc2ccccc21
IC50 [21]: 11.4 µM | IC50 [22]: 9.5 µM | IC50 at 72 h [23]: > 18 µM

IC50 [24]: 20 µM
SMILES: CC(C)=CCCC1(C)C=Cc2c(c(C)cc3c2[nH]c2c(-c4c(O)ccc5c4[nH]c4c6c(c(C)cc45)OC(C)(CCC=C(C)C)C=C6)c(O)ccc23)O1 (stereo not given)

IC50 [25]: 1.08 µM | IC50 [10]: 1.08 µM | IC50 [26]: 1.08 µM
SMILES: COc1ccc2c(c1)c1cc3c(-c4c([N+](=O)[O-])ncn4C)nccc3c(C)c1n2C

IC50 [27]: 4.4 µM | IC50 [28]: 4.4 µM
SMILES: C[N+](C)(C)CCN1CCN(CCCCCn2c3ccccc3c3cc(Cl)ccc32)CC1

SMILES: COc1cc(NC(=O)Nc2cc(C)c3[nH]c4ccc(C)cc4c3c2C)cc(OC)c1OC
IC50 at 72 h [29]: 210 µM | IC50 [21]: 1.93 µM | IC50 [30]: 1.93 µM | IC50 [31]: 1.93 µM | IC50 [22]: 1.93 µM | IC50 at 72 h [32]: 141 µM
